Values after ≈ are worked out from the molar mass of the structure shown. Read-outs that look alike come from different tables or passages of the source. Square brackets hold non-standard residues; d marks the D form. Peptide text beside a SMILES is read from it.
Experiments:
[1] = molecular target: T1, elastase (from human leukocytes) (Homo sapiens, UniProt P08246); assay: Proteolytic digestion assessed by reverse-phase HPLC; assay type: in vitro ADME
T1 construct: elastase (from human leukocytes, Sigma); purchased Sigma; host or cells: human leukocytes (cell-derived)
T1 sequence (P08246 30-247 limits assumed): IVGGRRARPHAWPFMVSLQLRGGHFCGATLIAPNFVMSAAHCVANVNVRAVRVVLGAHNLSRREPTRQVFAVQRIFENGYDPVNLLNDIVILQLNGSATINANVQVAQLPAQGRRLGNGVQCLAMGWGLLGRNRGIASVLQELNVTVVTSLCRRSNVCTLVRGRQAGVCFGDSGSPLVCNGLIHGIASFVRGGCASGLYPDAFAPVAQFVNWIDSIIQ

[2] = molecular target: pepsin (from porcine stomach mucosa) (Sus scrofa, UniProt P00791); assay: in vitro; conditions: pig, pH 7.3
Procedure: (§1) In order to reach their target, the diastereomers have to withstand proteolytic digestion by proteases which may occur during the time of their administration site till they reach the target site. The susceptibility of the diastereomer 2 of the invention Is to proteolytic digestion by pepsin (from porcine stomach mucosa, Sigma), trypsin (from bovine pancreas, Sigma), and elastase (from human leukocytes, Sigma) was assessed by reverse-phase HPLC. As a control we used the native, all L-amino acid antimicrobial peptide cecropin B. Equal amounts of the peptides were dissolved in PBS (35 mM phosphate buffer/0.15 M NaCl, pH 7.3) at final concentration of 140 μM to which 25 μM of protease were added. The samples were incubated under agitation for 30 min at 37° C. After the addition of the appropriate protease inhibitor to stop the reaction, aliquots were injected to C18 column and the amounts of the intact diastereomers were evaluated using their absorbance at 215 nm.

[3] = molecular target: trypsin (from bovine pancreas) (Bos taurus, UniProt P00760); assay: in vitro; conditions: pH 7.3
Procedure: as §1

[4] = test system: Mycoplasma pneumoniae; assay type: cell-based; conditions: 1 h
Procedure: In order to examine the activity of the diastereomers of the invention against mycoplasma, 500 μl of Mycoplasma pneumoniae cells were introduced into a cell culture flask containing 50 ml of SP-4 growth media (Jacob et al., 1985). The cells were grown at 37° C. for 3-4 days. Before the assay, the mycoplasma cells were washed 3 times with serum-free medium (without fetal calf serum) and then harvested into 5 ml of the same medium. The cells' concentration was adjusted to approximately 1×10^6 cells ml^−1. Thereafter, 150 μl of either diastereomer 1 or 2 in phosphate-buffered saline (PBS) were added to 150 μl mycoplasma cells. The mixture was incubated for 1 hour at room temperature. As a control, cells were incubated with PBS alone. At the end of the incubation period, 150 μl of the mixture were inoculated into tissue culture flasks (in duplicate) containing 15 ml SP-4 media. After 3-4 days, the mycoplasma viability was determined by counting the number of cells grown in each flask.

[5] = test system: Cryptococcus neoformans ATCC 66031; assay type: cell-based
Procedure: (§2) The antifungal activity of the diastereomers was examined in sterile 96-well plates (Nunc F96 microtiter plates) in a final volume of 200 μL as follows: 100 μl of a suspension containing fungi at concentration of 1×10^4 Colony-Forming Units (CFU)/ml in culture medium (RPMI 1640, 0.165 M MOPS pH 7.0, with L-glutamine, without NaHCO3) was added to 100 μl of water containing the peptide in serial 2-fold dilutions in water. The fungi were incubated in the presence of the diastereomeric peptides for 24-48 h at 35° C. in a Binder KB115 incubator under agitation. Growth inhibition was determined by measuring the absorbance at 620 nm with a Microplate autoreader E1309 (Bio-tek Instruments). Antifungal activity is expressed as the minimal inhibitory concentration (MIC), the concentration at which 100% inhibition of growth was observed after the incubation time mentioned above. The fungi used were: Aspergillus niger ATCC 9642, Candida albicans ATCC 10231 and Cryptococcus neoformans ATCC 66031.

[6] = test system: Candida albicans ATCC 10231; assay type: cell-based
Procedure: as §2

[7] = test system: Aspergillus niger ATCC 9642; assay type: cell-based
Procedure: as §2

[8] = test system: B16 F10 mouse melanoma cell line; assay: In vitro anticancer activity, Trypan blue cell viability, LC50
Procedure: (§3) The anticancer activity of the diastereomers 1, 2, 8, 9 and 10 was examined against B16 F10 mouse melanoma cell line. Melanoma cells were grown in RPMI-1640 medium supplemented with 10% fetal calf serum and antibiotics, at 37° C., in humidified atmosphere at 5% CO2 and 95% air. In addition, the cell-selectivity of the diastereomeric peptides was studied by examining their effect on NIH-3T3 normal fibroblasts cell line. NIH-3T3 mouse fibroblasts cells were grown in DMEM medium supplemented with 10% bovine calf serum and antibiotics under the same conditions as described above for B16 F10 mouse melanoma cells. Melanoma cells (2×10^5 cells ml^−1) or NIH-3T3 cells (2.5×10^5 cells ml^−1) were seeded in tissue culture plates (3.5 cm). After 48 h, cells were washed thrice with the corresponding medium. Then the cells were incubated at 37° C. in medium (without serum and antibiotics) in the presence of the tested diastereomeric peptides dissolved in PBS, at different concentrations. […] Following 24 h of incubation, the cells were harvested with trypsin (0.25%)-EDTA (0.05%) and centrifuiged for 10 min at 270×g. The precipitated cells were suspended in the corresponding medium and counted in a hemocytometer (Neubauer). Cell viability was determined by Trypan blue dye exclusion.

[9] = Cell selectivity, Trypan blue cell viability, LC50; assay type: cell-based, mouse; conditions: 50% cell mortality after 24 h incubation, medium without serum, read-out: Lethal Concentration (LC50), NIH-3T3 fibroblasts
[10] = In vitro anticancer activity, Trypan blue cell viability, LC50
Procedure: as §3

[11] = test system: vancomycin-resistant Enterococcus faecium (VRE) ATCC 700221; assay type: cell-based
Procedure: (§4) The antibacterial activity of the peptides was examined in sterile 96-well plates (Nunc F96 microtiter plates) in a final volume of 100 μl as follows: Aliquots (50 μl) of a suspension containing bacteria at concentration of 1×10^6 Colony-Forming Units (CFU)/ml in culture LB (Lauria broth) medium were added to 50 μl of water containing the peptide in serial 2-fold dilutions in water. Inhibition of growth was determined by measuring the absorbance at 600 nm with a Microplate autoreader E1309 (Bio-tek Instruments), after an incubation time of 18-20 h at 37° C. Antibacterial activities were expressed as the minimal inhibitory concentration (MIC), the concentration at which 100% inhibition of growth was observed after 18-20 h of incubation. The bacteria used were: Escherichia coli ATCC 25922, Acinetobacter baumannii ATCC 19606, Pseudomonas aeruginosa ATCC 27853, Staphylococcus aureus ATCC 6538P, Enterococcus faecalis ATCC 29212, Enterobacter cloacae ATCC 49141. The antibacterial activity of peptides 2 and 6 was also examined against resistant bacteria: methicilin-resistant Staphylococcus aureus ([…]) ATCC 700698 and vancomycin-resistant Enterococcus faecium (VRE) ATCC 700221.

[12] = test system: methicilin-resistant Staphylococcus aureus (MRSA) ATCC 700698; assay type: cell-based
Procedure: as §4

Sequence of trypsin (from bovine pancreas) (P00760 24-246): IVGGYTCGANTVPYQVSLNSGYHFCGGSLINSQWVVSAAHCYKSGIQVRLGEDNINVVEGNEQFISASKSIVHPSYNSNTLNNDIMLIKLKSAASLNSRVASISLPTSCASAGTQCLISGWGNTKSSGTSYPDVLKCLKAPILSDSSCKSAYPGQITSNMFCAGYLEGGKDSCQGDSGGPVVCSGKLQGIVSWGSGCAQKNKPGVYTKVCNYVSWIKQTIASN
Sequence of pepsin (from porcine stomach mucosa) (P00791 60-385): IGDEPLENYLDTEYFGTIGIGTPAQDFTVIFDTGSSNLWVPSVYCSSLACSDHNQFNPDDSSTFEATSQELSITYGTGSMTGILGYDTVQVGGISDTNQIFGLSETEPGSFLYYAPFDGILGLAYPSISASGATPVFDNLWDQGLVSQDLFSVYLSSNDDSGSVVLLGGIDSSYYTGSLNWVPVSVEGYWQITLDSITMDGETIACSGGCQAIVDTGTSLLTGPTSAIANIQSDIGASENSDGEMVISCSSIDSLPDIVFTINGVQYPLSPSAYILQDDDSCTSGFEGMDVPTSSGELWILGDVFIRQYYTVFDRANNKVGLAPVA

Row | Structure (SMILES) | metabolised at 0.5 h, 140 μM ([1]; isolated enzyme elastase, pH 7.3) [%] | metabolised at 0.5 h, 140 μM [2] [%] | metabolised at 0.5 h, 140 μM [3] [%] | MIC against Mycoplasma [4] [µg/mL] | MIC, C. neoformans ATCC 66031 [5] [µg/mL] | MIC, C. albicans ATCC 10231 [6] [µg/mL] | MIC, A. niger ATCC 9642 [7] [µg/mL] | Lethal Concentration (LC50), B16-F10 melanoma ([8]; 50% cell mortality after 24 h incubation, medium without serum) [µg/mL] | CC50 at 24 h ([9]; mouse, NIH-3T3 fibroblasts) [µg/mL] | Activity against C. albicans [6] | Activity against A. niger [7] | CC50 [10] [µg/mL] | Selectivity between melanoma and NIH-3T3 cell lines ([8]; B16 F10 vs NIH-3T3) | CC50 [9] [µg/mL] | Activity against resistant bacteria VRE [11] | Activity against resistant bacteria MRSA [12] | metabolised at 0.5 h, 140 μM ([1]; elastase from human leukocytes, 140 μM peptide, 25 μM protease, 30 min at 37° C., PBS pH 7.3, read-out: Proteolytic digestion, Elastase) [%]
1 | CC(C)C[C@H](NC(=O)[C@H](CCCCN)NC(=O)[C@H](CC(C)C)NC(=O)[C@@H](CC(C)C)NC(=O)[C@H](CC(C)C)NC(=O)[C@@H](N)CCCCN)C(=O)N[C@@H](CC(C)C)C(=O)N[C@H](CCCCN)C(=O)N[C@H](CCCCN)C(=O)N[C@@H](CC(C)C)C(=O)N[C@@H](CC(C)C)C(=O)N[C@@H](CCCCN)C(=O)N[C@H](CC(C)C)C(=O)N[C@@H](CC(C)C)C(=O)N[C@@H](CCCCN)C(N)=O [Peptide 2, [D]-L^3,13,K^8,9-K6L9] (H-KL[dL]LKLL[dK][dK]LLK[dL]LK-NH2) | 6 | 10 | 32 | 12.5 (≈ 6.93 µM) | 1.4 (≈ 0.776 µM) | 100 (≈ 55.4 µM) | 50 (≈ 27.7 µM) | 9 | 30 (≈ 16.6 µM) | – | – | – | – | – | – | – | –
2 | CC(C)C[C@H](NC(=O)[C@H](CCCCN)NC(=O)[C@@H](CC(C)C)NC(=O)[C@@H](CC(C)C)NC(=O)[C@H](CC(C)C)NC(=O)[C@@H](N)CCCCN)C(=O)N[C@@H](CC(C)C)C(=O)N[C@H](CC(C)C)C(=O)N[C@@H](CCCCN)C(=O)N[C@H](CC(C)C)C(=O)N[C@@H](CC(C)C)C(=O)N[C@@H](CCCCN)C(N)=O [Peptide 1, [D]-L^3,4,8,10-K4L8, reference compound] (H-KL[dL][dL]KLL[dL]K[dL]LK-NH2; N-terminus assumed) | – | – | – | 50 (≈ 34.8 µM) | 4.7 (≈ 3.28 µM) | >200 | >200 | – | – | inactive | inactive | 90 (≈ 62.7 µM) | active against both cell lines at similar concentration | 100 (≈ 69.7 µM) | – | – | –
3 | CC(C)C[C@H](NC(=O)[C@H](CC(C)C)NC(=O)[C@@H](CCCCN)NC(=O)[C@@H](CCCCN)NC(=O)[C@H](CC(C)C)NC(=O)[C@@H](CC(C)C)NC(=O)[C@H](CCCNC(=N)N)NC(=O)[C@H](CC(C)C)NC(=O)[C@@H](CC(C)C)NC(=O)[C@H](CC(C)C)NC(=O)[C@@H](N)CCCCN)C(=O)N[C@@H](CCCNC(=N)N)C(=O)N[C@H](CC(C)C)C(=O)N[C@@H](CC(C)C)C(=O)N[C@@H](CCCCN)C(N)=O [Peptide 6, [D]-L^3,6,13,K^8,9-K4R2L9] (H-KL[dL]LR[dL]L[dK][dK]LLR[dL]LK-NH2; N-terminus assumed) | – | – | – | – | 1.5 (≈ 0.806 µM) | 150 (≈ 80.6 µM) | 200 (≈ 107 µM) | – | – | – | – | – | – | – | highly active | highly active | –
4 | CC[C@H](C)[C@H](NC(=O)CNC(=O)[C@H](CC(N)=O)NC(=O)[C@H](CCCNC(=N)N)NC(=O)[C@@H](NC(=O)[C@H](CC(N)=O)NC(=O)[C@H](CCCNC(=N)N)NC(=O)CNC(=O)[C@H](CCSC)NC(=O)[C@H](CCCCN)NC(=O)[C@H](CCC(=O)O)NC(=O)[C@@H](NC(=O)[C@H](CCCCN)NC(=O)[C@H](CCCCN)NC(=O)[C@H](Cc1ccccc1)NC(=O)[C@@H](NC(=O)[C@H](CCCCN)NC(=O)[C@H](Cc1c[nH]c2ccccc12)NC(=O)[C@@H](N)CCCCN)C(C)C)[C@@H](C)CC)[C@@H](C)CC)C(=O)N[C@H](C(=O)N[C@@H](CCCCN)C(=O)N[C@@H](C)C(=O)NCC(=O)N1CCC[C@H]1C(=O)N[C@@H](C)C(=O)N[C@H](C(=O)N[C@@H](C)C(=O)N[C@H](C(=O)N[C@@H](CC(C)C)C(=O)NCC(=O)N[C@@H](CCC(=O)O)C(=O)N[C@@H](C)C(=O)N[C@@H](CCCCN)C(=O)N[C@@H](C)C(=O)N[C@@H](CC(C)C)C(N)=O)C(C)C)[C@@H](C)CC)C(C)C [Cecropin B, cecropin B, reference compound] (H-KWKVFKKIEKMGRNIRNGIVKAGPAIAVLGEAKAL-NH2) | – | 100 | 100 | – | – | – | – | – | – | – | – | – | – | – | – | – | 100

Reference: patent publication US20040053847A1, “Diastereomeric peptitdes and pharmaceutical compositions comprising them” (priority 2000, published 2004)
